The IC50 is the midpoint of a concentration-inhibition curve. The low end stands for greater potency in that assay, the high end for weaker potency in that assay. As usually defined, the EC50 is the concentration at which the effect is half-maximal. Higher therefore signals weaker potency. The term MIC denotes the lowest concentration found to suppress growth. A lower MIC goes with greater potency.

Data on eleven compounds can be found in ChEMBL document CHEMBL3351862, “Coumarin hybrids as novel therapeutic agents” (Bioorg Med Chem, 2014).

Values after ≈ are worked out from the molar mass of the structure shown.

The subject of test [1] is Platelet. The test can be described thus: Inhibition of platelet (unknown origin) aggregation. Format: functional, cell-based.
Test [2] has as its system Human immunodeficiency virus. The test is described as follows: Antiviral activity against Human immunodeficiency virus. Format: functional, organism-based. Conditions: Human immunodeficiency virus 1.
The target of test [3] is T1, Cholinesterase (Homo sapiens, UniProt P06276). The test can be described thus: Inhibition of BuChE (unknown origin).
T1 sequence (P06276 whole entry): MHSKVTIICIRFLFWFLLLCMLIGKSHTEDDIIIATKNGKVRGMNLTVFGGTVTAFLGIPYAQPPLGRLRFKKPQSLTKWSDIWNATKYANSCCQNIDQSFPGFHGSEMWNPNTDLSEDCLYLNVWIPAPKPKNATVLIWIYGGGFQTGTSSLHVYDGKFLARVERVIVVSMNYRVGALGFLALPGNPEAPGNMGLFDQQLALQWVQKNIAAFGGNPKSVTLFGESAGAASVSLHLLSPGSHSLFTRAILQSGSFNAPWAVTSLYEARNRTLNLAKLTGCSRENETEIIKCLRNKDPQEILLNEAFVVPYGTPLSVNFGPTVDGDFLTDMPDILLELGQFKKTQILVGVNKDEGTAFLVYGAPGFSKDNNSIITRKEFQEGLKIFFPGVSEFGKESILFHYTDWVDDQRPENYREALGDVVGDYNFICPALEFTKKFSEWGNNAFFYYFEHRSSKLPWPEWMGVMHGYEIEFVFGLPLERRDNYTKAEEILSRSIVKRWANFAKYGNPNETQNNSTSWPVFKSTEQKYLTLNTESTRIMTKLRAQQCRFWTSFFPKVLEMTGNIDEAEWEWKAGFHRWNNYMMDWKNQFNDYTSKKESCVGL
Test [4] addresses T1, Cholinesterase. The test can be described thus: Ratio of galamthamine IC50 to compound IC50 for BuChE (unknown origin).
Test [5] relates to Human immunodeficiency virus 1. The test can be described thus: Antiviral activity against Human immunodeficiency virus 1 3B. Format: functional, organism-based.
Test [6] concerns Human immunodeficiency virus 2. The test is described as follows: Antiviral activity against Human immunodeficiency virus 2 ROD. The format is functional, organism-based. Conditions: Human immunodeficiency virus 2, ISOLATE ROD.
Test [7] concerns Human immunodeficiency virus 1. The test is described as follows: Antiviral activity against Human immunodeficiency virus 1 harboring reverse transcriptase K103N/Y181C double mutant. The format is functional, organism-based.
Test [8] has as its system Staphylococcus aureus. The test can be described thus: Antimicrobial activity against methicillin-resistant Staphylococcus aureus. The format is functional.
For test [9], the system named is KB. The test is described as follows: Anticancer activity against human KB cells. The format is functional, cell-based.
The test system of test [10] is SK-OV-3. The test can be described thus: Growth inhibition of human SKOV3 cells at 50 uM. Format: functional. The note with it: read-out: GI.
For test [11], the system named is CCRF-CEM. The test is described as follows: Growth inhibition of human CCRF-CEM cells at 50 uM. The format is functional. Conditions: read-out: GI.
The subject of test [12] is MCF7. The test is described as follows: Growth inhibition of human MCF7 cells at 50 uM. Conditions: read-out: GI. The format is functional.
Test [13] concerns the target Proto-oncogene tyrosine-protein kinase Src (Homo sapiens, UniProt P12931). The test can be described thus: Inhibition of Src kinase (unknown origin).
The target in test [14] is Acetylcholinesterase (Homo sapiens, UniProt P22303). The test is described as follows: Inhibition of AChE (unknown origin).
Chain of Acetylcholinesterase (P22303 whole entry): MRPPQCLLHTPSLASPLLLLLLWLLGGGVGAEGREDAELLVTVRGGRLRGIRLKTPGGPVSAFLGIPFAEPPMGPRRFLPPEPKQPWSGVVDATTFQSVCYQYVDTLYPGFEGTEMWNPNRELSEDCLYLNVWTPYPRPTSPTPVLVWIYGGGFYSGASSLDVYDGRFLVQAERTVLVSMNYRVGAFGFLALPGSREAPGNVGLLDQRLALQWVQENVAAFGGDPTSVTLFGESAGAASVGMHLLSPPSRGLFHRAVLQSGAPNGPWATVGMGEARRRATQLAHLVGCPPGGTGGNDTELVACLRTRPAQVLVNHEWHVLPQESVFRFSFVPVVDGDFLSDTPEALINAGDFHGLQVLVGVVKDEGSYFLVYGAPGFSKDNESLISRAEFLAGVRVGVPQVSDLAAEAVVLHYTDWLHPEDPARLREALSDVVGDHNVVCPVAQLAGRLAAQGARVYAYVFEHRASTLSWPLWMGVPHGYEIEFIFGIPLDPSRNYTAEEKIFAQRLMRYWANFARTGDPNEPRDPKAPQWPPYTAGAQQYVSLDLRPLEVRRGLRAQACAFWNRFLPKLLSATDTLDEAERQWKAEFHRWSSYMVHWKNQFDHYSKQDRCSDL

Chain of Proto-oncogene tyrosine-protein kinase Src (P12931 2-536 limits assumed): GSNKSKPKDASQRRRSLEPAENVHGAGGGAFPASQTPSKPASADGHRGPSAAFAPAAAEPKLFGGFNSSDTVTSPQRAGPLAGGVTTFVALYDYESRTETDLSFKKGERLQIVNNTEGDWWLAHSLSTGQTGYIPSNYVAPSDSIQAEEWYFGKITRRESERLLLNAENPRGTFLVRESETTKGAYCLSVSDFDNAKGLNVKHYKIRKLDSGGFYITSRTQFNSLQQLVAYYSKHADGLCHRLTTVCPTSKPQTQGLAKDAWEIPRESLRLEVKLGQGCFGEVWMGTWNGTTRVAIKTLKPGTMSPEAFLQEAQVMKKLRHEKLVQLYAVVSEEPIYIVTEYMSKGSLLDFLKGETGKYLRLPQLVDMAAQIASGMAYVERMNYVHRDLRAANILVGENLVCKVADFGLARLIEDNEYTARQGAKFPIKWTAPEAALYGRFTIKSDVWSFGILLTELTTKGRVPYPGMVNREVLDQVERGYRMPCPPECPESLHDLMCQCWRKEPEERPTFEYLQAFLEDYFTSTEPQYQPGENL

Take `O=c1oc2ccc(O)cc2cc1-c1cc(O)cc(O)c1`: the IC50 in test [1] is 10.6 µM. With `O=c1oc2ccccc2cc1CSc1nc2cccnc2[nH]1`, a half-maximal response in [2] (EC50) required 6.8 µM. Regarding `Cc1cc(=O)oc2cc(OCCCCCCCN3CCN(CC(=O)Nc4c5c(nc6ccccc46)CCCC5)CC3)ccc12`, the IC50 in test [3] was 0.099 µM. Further, in test [4], the Ratio IC50 is 128. Take `O=c1oc2ccccc2cc1CSc1nc2ccccc2o1`: the EC50 in test [2] amounted to 12 µM. `CCOC(=O)CNc1nc(Nc2ccc(C)cc2)nc(OCc2cc3ccccc3oc2=O)n1`: the IC50 in test [5], in [6] and in test [7] was 1 µg/mL (≈ 2.17 µM) each time. In test [8], `Cc1cc(=O)oc2cc(OCc3cn(Cc4cc(=O)oc5ccc(Cl)cc45)nn3)ccc12` yielded an MIC of 6.25 µg/mL (≈ 13.9 µM). `COc1cc(OC)cc(-c2cc3ccc(OC(C)=O)c(OC(C)=O)c3oc2=O)c1` registered an IC50 in test [9] of 5180 µM. In the case of `O=c1oc2ccccc2c(O)c1-c1csc(Nc2cccc([N+](=O)[O-])c2)n1`, the MIC in test [8] was 31.2 µg/mL (≈ 81.9 µM).

Consider `COc1ccc(/C=C/C(=O)c2c(O)ccc3c(C)cc(=O)oc23)cc1O`, for which the inhibition of growth at 50 µM stood at 63% in [10], 50% in test [11] and 43% in [12]. This compound also came in with an IC50 in test [13] of 14.5 µM.

In turn, `Cc1cc(=O)oc2cc(OCCN3CCN(CC(=O)Nc4c5c(nc6ccccc46)CCCC5)CC3)ccc12` showed an IC50 in [14] of 0.092 µM. Take `O=c1oc2ccccc2cc1CSc1nc2cncnc2[nH]1`: the response in test [2] was half-maximal at 2 µM (EC50).
